≈ marks a conversion by molar mass, not a printed value.

51 compounds from PubChem BioAssay AID1996 can be followed below.

For the data set the following is noted: buffer; pH 7.4; 200.0 µM.
`CC(C(=O)NC1CCCC1)N1CCN(Cc2ccccc2)CC1` (stereo unspecified): the solubility (kinetic) is greater than 47.3 µg/mL.

As to `NC(=O)c1ccc(=O)n(Cc2ccc(Cl)cc2Cl)c1`, the kinetic solubility is greater than 44.6 µg/mL.

The compound `CCCS(=O)(=O)N1CCCC(C(=O)c2cccc(Cl)c2)C1` (stereo unspecified) showed a solubility (kinetic) of 44.7 µg/mL (≈ 136 µM).

For `CCCn1c(N)c(N2CCCCC2)c(=O)n(CC(=O)Nc2ccccc2C(F)(F)F)c1=O`, the solubility (kinetic) turned out to be 7.7 µg/mL (≈ 17 µM).

`Cc1csc(NC(=O)CSc2nccn2Cc2ccco2)n1` had a kinetic solubility of 47.7 µg/mL (≈ 143 µM).

Compound `CC(=O)Nc1ccc(S(=O)(=O)NCCc2ccccn2)cc1` gave a solubility (kinetic) of 44 µg/mL (≈ 138 µM). The solubility kinetic values of the last two compounds are within 1.5-fold of each other.

Consider `CCOC(=O)C1(C)NC(c2ccco2)C2C(=O)N(CC)C(=O)C21` (stereo unspecified), for which the solubility (kinetic) was greater than 48.1 µg/mL.

`Cc1ccc(C(=O)Nc2ncc(C)s2)s1`: the solubility (kinetic) turned out to be 7.1 µg/mL (≈ 29.8 µM).

`CCCN(CC(=O)Nc1ccccc1OC)C(=O)c1nc2nc(C)ccn2n1` registered a kinetic solubility greater than 57.4 µg/mL.

The compound `Cn1nccc1C(=O)N1CCOCC1` came in with a kinetic solubility greater than 29.3 µg/mL.

Take `O=Cc1c(Nc2cccc(C(F)(F)F)c2)nc2ccccn2c1=O`: the kinetic solubility is 1.7 µg/mL (≈ 5.1 µM).

Regarding `CC1(C(=O)Nc2ccccc2)Cc2ccccc2C(=O)O1` (stereo unspecified), the kinetic solubility is greater than 42.2 µg/mL.

On to `CC1CCCCN1C(=S)NCc1ccco1` (stereo unspecified), for which the solubility (kinetic) is greater than 35.8 µg/mL.

Consider `CC(=NCCc1ccccc1)C1=C(O)C(c2ccccc2)OC1=O` (stereo unspecified), for which the solubility (kinetic) is 31.7 µg/mL (≈ 98.6 µM).

`Nc1ccc(-c2nc3ccc(N)cc3s2)cc1` registered a solubility (kinetic) of 17.7 µg/mL (≈ 73.3 µM). This solubility kinetic is about 1.8-fold lower than that of the compound before.

`COC(=O)C1=C(C)NC(=O)NC1c1ccc2c(c1)OCO2` (stereo unspecified) displayed a kinetic solubility of 37.3 µg/mL (≈ 128 µM).

In turn, `Cc1noc(C)c1C(=O)OCC(=O)N(C)C1CCS(=O)(=O)C1` (stereo unspecified) displayed a kinetic solubility greater than 49.6 µg/mL.

For the compound `O=C(CN1CCN(Cc2ccccc2)CC1)NCc1ccc(Cl)cc1`, the kinetic solubility was greater than 53.7 µg/mL.

Compound `C/C(N)=C(/C#N)C(=O)COC(=O)c1cccc(O)c1` came in with a solubility (kinetic) greater than 39 µg/mL.

Turning to `CCOc1ccc(CN(C)C(=O)CNC(=O)C2CCCCC2)cc1`, the solubility (kinetic) is greater than 49.9 µg/mL.

In turn, `Cc1ccc(S(=O)(=O)N2CC(O)CC2C(=O)O)cc1` (stereo unspecified) registered a solubility (kinetic) greater than 42.8 µg/mL.

On to `NS(=O)(=O)c1cnccc1Oc1cccc(Cl)c1`, for which the solubility (kinetic) is greater than 42.7 µg/mL.

Take `Nc1cc(=O)[nH]c(SCCSc2ccc(F)cc2)n1`: the solubility (kinetic) stood at 6.2 µg/mL (≈ 20.8 µM).

`C=CCn1c(=O)c2ccccc2n2c(SCC(=O)N(C)C)nnc12` had a kinetic solubility greater than 51.5 µg/mL.

In turn, `COC(=O)c1sccc1NC(=O)c1ccccc1C(=O)O` came in with a kinetic solubility of 39.8 µg/mL (≈ 130 µM).

Consider `COc1ccc(C(CCNCc2ccc(OC(C)C)cc2)C(C)C)cc1` (stereo unspecified), for which the kinetic solubility was 49.4 µg/mL (≈ 139 µM).

Compound `O=C(Nc1cccc(S(=O)(=O)N2CCOCC2)c1)c1ccc(=O)[nH]c1` gave a solubility (kinetic) greater than 54.5 µg/mL.

As to `CN1C(=O)C(O)N=C(c2ccccc2)c2ccccc21` (stereo unspecified), the solubility (kinetic) is greater than 39.9 µg/mL.

On to `CC1CCN(C(=S)NC(=O)c2ccc(F)cc2)CC1`, for which the solubility (kinetic) was greater than 42.1 µg/mL.

Take `CCOC(=O)c1ccc(NC(=O)C2CC3CCC2C3)cc1` (stereo unspecified): the kinetic solubility is 22.2 µg/mL (≈ 77.3 µM).

In the case of `O=C(CCNC(=O)c1ccco1)Nc1nc(-c2ccccc2)cs1`, the kinetic solubility was found to be 8.5 µg/mL (≈ 24.9 µM).

Compound `O=C1Nc2ccccc2S/C1=C/c1cccs1` returned a kinetic solubility of less than 0.6 µg/mL.

Consider `COC(=O)CNC(=O)c1cc(-c2ccncc2)nc2ccccc12`, for which the solubility (kinetic) is greater than 48.2 µg/mL.

`CC(=O)c1sc(-c2ccc(F)cc2)cc1NS(=O)(=O)c1ccccc1`: the kinetic solubility stood at 0.9 µg/mL (≈ 2.4 µM).

For `COc1cc(NC(=S)N(C)CCC#N)c(OC)cc1Cl`, the kinetic solubility was 38.9 µg/mL (≈ 124 µM).

`CC1(C)C(CC2OCC(CN3CCCCC3)O2)[C@H]2CC[C@@H]1C2` (stereo partly specified): the kinetic solubility was found to be 25.9 µg/mL (≈ 84.2 µM). Compared with the last compound, the solubility kinetic is about 1.5-fold lower.

The compound `CC1=[N+](C)N(c2ccccc2)C(=O)C1N=C/C=C/c1ccccc1` (stereo unspecified) showed a solubility (kinetic) greater than 47.8 µg/mL.

Take `O=C(Cc1ccccc1F)Nc1nc2ccccc2[nH]1`: the solubility (kinetic) worked out at 2.7 µg/mL (≈ 10 µM).

Compound `CC(C)(C)OC(=O)N1CCC(CNC(=O)Nc2ccccc2)CC1` displayed a solubility (kinetic) greater than 50 µg/mL.

For the compound `COc1cccc(NC(=S)N(C)C2CCN(C)CC2)c1`, the solubility (kinetic) was greater than 44 µg/mL.

In the case of `N#Cc1ccc(CSc2nc(N)cc(=O)[nH]2)cc1`, the solubility (kinetic) is greater than 38.7 µg/mL.

Turning to `Cc1cc(C(=O)Nc2ccc(S(=O)(=O)N3CCCC3)cc2)no1`, the kinetic solubility turned out to be 2.2 µg/mL (≈ 6.56 µM).

Compound `CC(C)(C)OC(=O)NCCNC(=O)c1cccs1` yielded a solubility (kinetic) greater than 40.6 µg/mL.

Compound `COc1cc(/C=C/C(=O)OCC(=O)NCCCc2ccccc2)ccc1O` displayed a kinetic solubility of 52.9 µg/mL (≈ 143 µM).

Compound `COc1cccc(N2CCN(C(=O)c3cc(C)oc3C)CC2)c1` had a solubility (kinetic) greater than 47.2 µg/mL.

`O=C(CN1CCN(c2ccccn2)CC1)Nc1ccc(F)cc1F` had a kinetic solubility greater than 49.9 µg/mL.

For the compound `COCCCn1c(=O)c2ccccc2n(Cc2cccc(C)c2)c1=O`, the kinetic solubility came out at 42.6 µg/mL (≈ 126 µM).

`O=S(=O)(c1cccs1)N1CCN(c2ccccc2F)CC1` showed a kinetic solubility of 15.6 µg/mL (≈ 47.8 µM).

The compound `O=C(/C=C/c1ccco1)OCC(=O)c1cccc([N+](=O)[O-])c1` gave a kinetic solubility of 3.2 µg/mL (≈ 10.6 µM).

`CC(C)CN1CCC(CN(C)Cc2nc(-c3cnccn3)no2)CC1` came in with a solubility (kinetic) of 45.2 µg/mL (≈ 131 µM).

`Cc1ccc(O)c(NC(=O)c2cc(-c3ccccc3Cl)on2)c1` had a solubility (kinetic) of 0.4 µg/mL (≈ 1.22 µM).
